From US9828350B2, “5,6-dihydro-2H-[1,4]oxazin-3-yl-amine derivatives useful as inhibitors of beta-secretase (BACE)” (Janssen Pharmaceutica NV, priority 2010, dated 2017)

Key:
[1] = target: recombinant BACE1 protein (Homo sapiens, UniProt P56817); test: Biochemical FRET based assay; conditions: recombinant BACE1 1 μg/ml, 120 minutes at room temperature, pH 5.0; for IC50: read-out: Biochemical FRET based assay pIC50 (converted)
Outline: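 Recombinant BACE1 (1 μg/ml final) was incubated 120 minutes at room temperature with […] Mca/Dnp-labelled 13-mer APP Swedish-mutant peptide in 40 mM citrate pH 5.0, 0.04% PEG, 4% DMSO, with or without compound. Cleavage was measured as fluorescence (ex 320/em 405 nm), given as RFU difference between T120 and T0.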

Abeta 1-42 = test: Cellular αLisa assay in SKNBE2 cells, Abeta 1-42; format: cell-based, human; conditions: incubated for 18 hours; for IC50: Homo sapiens, SKNBE2, 18 h, read-out: Cellular αLisa assay in SKNBE2 cells Abeta 42 pIC50 (converted)
Outline: (§1)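 Human neuroblastoma SKNBE2 cells expressing wild-type hAPP695 were incubated with compound for 18 hours. Secreted Abeta total and Abeta 1-42 in medium were quantified by sandwich αLisa: biotinylated AbN/25 on streptavidin donor beads with Ab4G8 (total) or cAb42/26 (1-42) acceptor beads. Light emission read after 1 hour (ex 650 nm, em 615 nm).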

Abeta total = test: Cellular αLisa assay in SKNBE2 cells, Abeta total; format: cell-based, human; conditions: incubated for 18 hours; for IC50: Homo sapiens, SKNBE2, 18 h, read-out: Cellular αLisa assay in SKNBE2 cells Abetatotal pIC50 (converted)
Outline: as §1

recombinant BACE1 protein, sequence (P56817 46-501): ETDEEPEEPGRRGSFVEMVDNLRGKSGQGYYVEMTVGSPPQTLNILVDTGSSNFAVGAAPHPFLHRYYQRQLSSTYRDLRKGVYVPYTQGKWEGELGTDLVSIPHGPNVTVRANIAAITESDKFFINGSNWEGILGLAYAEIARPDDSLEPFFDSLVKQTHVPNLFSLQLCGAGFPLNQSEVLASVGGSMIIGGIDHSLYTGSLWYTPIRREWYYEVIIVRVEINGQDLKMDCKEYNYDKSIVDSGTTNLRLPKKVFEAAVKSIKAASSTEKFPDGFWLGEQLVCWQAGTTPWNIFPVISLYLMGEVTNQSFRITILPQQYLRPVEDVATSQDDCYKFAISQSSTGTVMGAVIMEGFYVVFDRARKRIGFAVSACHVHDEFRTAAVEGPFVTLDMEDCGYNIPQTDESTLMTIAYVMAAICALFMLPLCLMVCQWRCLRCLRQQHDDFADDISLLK

Compound | IC50 [1] [nM] | IC50 (Abeta 1-42) [nM] | IC50 (Abeta total) [nM] | Biochemical FRET based assay pIC50 [1] | Cellular αLisa assay in SKNBE2 cells Abeta 42 pIC50 (Abeta 1-42) | Cellular αLisa assay in SKNBE2 cells Abetatotal pIC50 (Abeta total)
C[C@@]1(c2ccnc(-c3cc(Cl)cc(Cl)c3)c2)N=C(N)CO[C@H]1F (single isomer, unassigned) [Compound 278, (5S*,6S*)-5-[2-(3,5-dichlorophenyl)pyridin-4-yl]-6-fluoro-5-methyl-5,6-dihydro-2H-1,4-oxazin-3-amine] | 8710 | 3240 | 3160 |  |  | 
CC1(c2cc(NC(=O)c3cnc(C(F)(F)F)cn3)ccc2F)COCC(N)=N1 (stereo not drawn) [Compound 22] |  |  |  | 6.7 | 7.59 | 7.663
CC1(c2cc(-c3cncc(Cl)c3)c(F)cc2F)COCC(N)=N1 (stereo not drawn) [Compound 23] |  |  |  | 5.86 | 6.89 | 6.85
Cc1ccc(C(=O)Nc2ccc(F)c(C3(C)COCC(N)=N3)c2)nc1 (stereo not drawn) [Compound 24] |  |  |  | 6.77 | 7.77 | 7.73
CC1(c2cc(NC(=O)c3ccc(F)cn3)ccc2F)COCC(N)=N1 (stereo not drawn) [Compound 25] |  |  |  | 6.93 | 7.93 | 7.9
CC1(c2cc(NC(=O)c3ccc(C(F)(F)F)nn3)ccc2F)COCC(N)=N1 (stereo not drawn) [Compound 26] |  |  |  | 5.67 | 6.72 | 6.74
CC1(c2cc(NC(=O)c3ccc(Cl)cc3F)ccc2F)COCC(N)=N1.Cl (stereo not drawn) [Compound 27] |  |  |  | 6.35 | 7.06 | 7.04
CC1(c2cc(NC(=O)c3ccncn3)ccc2F)COCC(N)=N1 (stereo not drawn) [Compound 28] |  |  |  | 6.18 | 7.07 | 7.04
CC1(c2cc(NC(=O)c3ccc(Cl)s3)ccc2F)COCC(N)=N1 (stereo not drawn) [Compound 29] |  |  |  | 6.11 | 6.67 | 6.67
Cc1cccnc1C(=O)Nc1ccc(F)c(C2(C)COCC(N)=N2)c1 (stereo not drawn) [Compound 30] |  |  |  | 6.05 | 7.57 | 7.66
CC1(c2cc(-c3cccc(C(F)(F)F)c3)c(F)cc2F)COCC(N)=N1 (stereo not drawn) [Compound 31] |  |  |  | 4.76 | 5.76 | 5.86
CC1(c2cc(-c3cccc(C#N)c3)c(F)cc2F)COCC(N)=N1 (stereo not drawn) [Compound 32] |  |  |  | 4.87 | 6.2 | 6.25
COc1ccc(-c2cc(C3(C)COCC(N)=N3)c(F)cc2F)cc1 (stereo not drawn) [Compound 33] |  |  |  | 4.91 | 5.72 | 5.75
CC1(c2cc(-c3ccc(Cl)cc3)c(F)cc2F)COCC(N)=N1 (stereo not drawn) [Compound 34] |  |  |  | 5.05 | 5.54 | 5.58
CC1(c2cc(NC(=O)c3ncc(Cl)cc3F)ccc2F)COCC(N)=N1 (stereo not drawn) [Compound 35] |  |  |  | 7.11 | 8.37 | 8.4
CC1(c2cc(-c3cccc(OC(F)(F)F)c3)c(F)cc2F)COCC(N)=N1.Cl (stereo not drawn) [Compound 36] |  |  |  | 5.13 | 5.98 | 6.09
C[C@@]1(c2cc(-c3cc(F)cc(F)c3)c(F)cc2F)COCC(N)=N1 [Compound 37] |  |  |  | 5.45 | 6.77 | 6.79
C[C@@]1(c2cc(NC(=O)c3ccc(C(F)(F)F)cn3)ccc2F)COCC(N)=N1 [Compound 38] |  |  |  | 6.91 | 8.39 | 8.35

Compound | IC50 [1] [nM] | IC50 (Abeta 1-42) [nM] | IC50 (Abeta total) [nM] | Biochemical FRET based assay pIC50 [1] | Cellular αLisa assay in SKNBE2 cells Abeta 42 pIC50 (Abeta 1-42) | Cellular αLisa assay in SKNBE2 cells Abetatotal pIC50 (Abeta total)
Cc1cnc(C(=O)Nc2ccc(F)c([C@]3(C)COCC(N)=N3)c2)cn1 [Compound 40] |  |  |  | 6.04 | 7.31 | 7.32
C[C@@]1(c2cc(NC(=O)c3ccc(Cl)cc3)ccc2F)COCC(N)=N1 [Compound 41] |  |  |  | 6.33 | 7.31 | 7.33
COc1cc(Cl)ccc1C(=O)Nc1ccc(F)c([C@]2(C)COCC(N)=N2)c1 [Compound 45] |  |  |  | 5.53 | 6.85 | 6.92
COc1cccc(-c2cc([C@]3(C)COCC(N)=N3)c(F)cc2F)c1 [Compound 47] |  |  |  | 5.95 | 6.79 | 6.83
C[C@@]1(c2cc(-c3cc(Cl)cc(Cl)c3)c(F)cc2F)COCC(N)=N1 [Compound 48] |  |  |  | 5.73 | 6.19 | 6.22
C[C@@]1(c2cccc(-c3cccc(C#N)c3)c2)COCC(N)=N1 [Compound 51] |  |  |  | 5.41 | 6.61 | 6.59
C[C@@]1(c2cc(NC(=O)c3ccc(Cl)cc3F)ccc2F)COCC(N)=N1.Cl [Compound 68] |  |  |  | 6.35 | 7.06 | 7.04
C[C@@]1(c2cccc(NC(=O)c3ccc(Cl)cn3)c2)COC2(CC2)C(N)=N1 [Compound 73] | 102 | 4.9 | 4.27 |  |  | 
C[C@@]1(c2cccc(-c3cncnc3)c2)COC2(CC2)C(N)=N1 [Compound 74] | 4170 | 195 | 204 |  |  | 
CC1(c2cc(NC(=O)c3ncc(Cl)cc3F)ccc2F)N=C(N)COC1F (stereo not drawn) [Compound 77] | 52.5 | 12 | 11.7 |  |  | 
CC1(c2cc(NC(=O)c3ncc(Cl)cc3Cl)ccc2F)N=C(N)COC1F (stereo not drawn) [Compound 78] | 55 | 11.7 | 8.51 |  |  | 
COc1cnc(C(=O)Nc2cccc(C3(C)N=C(N)COC3F)c2)cn1 (stereo not drawn) [Compound 80] | 97.7 | 60.3 | 53.7 |  |  | 
COc1cncc(-c2cccc(C3(C)N=C(N)COC3C(F)(F)F)c2)c1 (stereo not drawn) [Compound 108] | 1290 | 120 | 120 |  |  | 
Cc1cc(Cl)cnc1C(=O)Nc1ccc(F)c([C@]2(C)COCC(N)=N2)c1 [Compound 143] |  |  |  | 7.48 | 8.35 | 8.36
CC1(c2cc(NC(=O)c3ncc(Cl)cn3)ccc2F)COCC(N)=N1 (stereo not drawn) [Compound 144] |  |  |  | 7.11 | 7.27 | 7.38
COc1cccc(-c2cc([C@]3(C)COCC(N)=N3)c(F)cc2F)n1.Cl [Compound 145] |  |  |  | 4.67 | 5.45 | 5.55
CC1(c2cccc(NC(=O)c3cnc(C(F)(F)F)cn3)c2)COCC(N)=N1 (stereo not drawn) [Compound 146] |  |  |  | 6.26 | 7.07 | 7.03
